Laboratory results reported in patent US11253610B2, “Plant virus particles for delivery of antimitotic agents” (CASE WESTERN RESERVE UNIVERSITY, priority 2015, dated 2022).
Numbered stars: 1 amine (or outer) side, 2 acyl side, 3 side chain; on linkers, the order of the positions; unused ones are H or OH. Square brackets hold non-standard residues; d marks the D form. Peptide text beside a SMILES is read from it. * marks the point of attachment. Dolaproine = CO[C@@H]([C@@H]1CCCN1)[C@@H](C)C(=O)O; Hexanoyl(6-maleimido) = O=C1C=CC(=O)N1CCCCCC(=O)*; Dil = CC[C@H](C)[C@H](NC)[C@@H](CC(=O)O)OC; PABC = O=C(OCc1ccc(N[*:1])cc1)[*:2]; X1 = C[C@@H](N*)[C@@H](O)c1ccccc1; Cit = NC(=O)NCCC[C@H](N)C(=O)O; NMeV = CN[C@H](C(=O)O)C(C)C

How the values were obtained:
[1] = system: Karpas 299 cells; assay: Cell viability assay (Alamar Blue); assay type: cell-based, human; settings: 72 hours incubation, read-out: IC50 (drug concentration where half of the cells are killed)
Method: Cell culture. Karpas 299 cells (ATCC) were maintained in RPMI-1640 at 37° C. in a 5% CO2 humidified atmosphere. The medium was supplemented with 20% (v/v) heat-inactivated fetal bovine serum (FBS), and 1% (v/v) penicillin-streptomycin. All reagents were obtained from Gibco.
Cell viability assay. Cells at a concentration of 10,000 cells/mL were seeded in a sterile, tissue culture-treated, 96-well clear bottom plate for 24 hours at 37° C. in a 5% CO2 humidified atmosphere. Cells were then incubated with fresh media with 0.02 nM to 200 nM VcMMAE for 72 hours. At 92 hours, Alamar Blue (ThermoFisher) was added, and cell viability was measured at 96 hours according to the manufacturer's instructions using a fluorescence plate reader with […].
To evaluate the efficacy of TMV-vcMMAE, cell viability assays were performed using Alamar Blue assay Alamar Blue reagent is primarily made of resazurin, a nontoxic cell permeable non-fluorescent blue molecule. […]
Karpas 299 cells were seeded for 24 hours and then incubated with free vcMMAE or TMV-MMAE for 72 hours. At 92 hours, Alamar Blue was added and the cells fluorescence was measured after 4 hours of incubation at 540 nm excitation and 610 nm emission. The results for both free vcMMAE and TMV-MMAE are plotted in FIG. 4, and the IC50 values were calculated. […]

[2] = vary with assay set up, time course and cell lines used; read-out: IC50 values in the literature; cited from earlier work

For `CC[C@H](C)[C@@H]([C@@H](CC(=O)N1CCC[C@H]1[C@H](OC)[C@@H](C)C(=O)N[C@H](C)[C@@H](O)c1ccccc1)OC)N(C)C(=O)[C@@H](NC(=O)[C@H](C(C)C)N(C)C(=O)OCc1ccc(NC(=O)[C@H](CCCNC(N)=O)NC(=O)[C@@H](NC(=O)CCCCCN2C(=O)C=CC2=O)C(C)C)cc1)C(C)C` [vcMMAE, valine-citrulline monomethyl auristatin E] ({Hexanoyl(6-maleimido)}-V[Cit][PABC][NMeV]V[Dil][Dolaproine]-X1), the IC50 [1] is listed as about 0.0258 µM and the IC50 [2] is listed as about 0.005 µM.
